Literature values as cited in patent US12414981B2, “JNK inhibitors for use in treating and preventing neurodegenerative disorders” (Northwestern University, priority 2021, dated 2025).

Settings: in vivo

crosses the blood-brain barrier: crosses the blood-brain barrier
SMILES: Oc1c2ccccc2c2c3c(cccc13)N=N2 [SP600125, anthra [1,9]pyrazol-6 (2H)-one]
